Experimental data: EP0790293A1, “Lubricant” (Asahi Kasei Kogyo Kabushiki Kaisha, priority 1991, dated 1992)

Experiments:
Assay type in all cases: physicochemical
[1] = Miscibility test with HFC-134a (sealed glass tube, visual evaluation); conditions: for Temperature range for being miscible with HFC-134a lower limit temperature (°C) / Temperature range for being miscible with HFC-134a upper limit temperature (°C): 0.2 g oil, about 1.5 g HFC-134a; for Temperature range for being miscible with HFC-134a upper limit temperature (°C): measured up to 90 °C
[2] = Kinetic viscosity (E-type rotational viscometer, Cannon-Fenske viscometer)
Description: The kinetic viscosity of the lubricant oil for use in the present invention can be determined by measuring the viscosity by means of various viscometers. As the viscometer to be used for determining the kinetic viscosity, there can be mentioned a capillary viscometer, such as a Ubbellohde viscometer, an Ostward viscometer or a Cannon-Fenske viscometer, a rotational viscometer, and a falling ball viscometer. In the present invention, an E-type rotational viscometer (manufactured by Tokyo Keiki, Japan) and a Cannon-Fenske viscometer were used.

[3] = Miscibility test with HFC-32
Experimental: (§1) First, 0.2 g of the oil [S1] was charged into a glass tube and then, the whole was cooled by liquid nitrogen. The interior of the glass tube was evacuated and, about 1.5 g of HFC-134a was introduced into the glass tube. The glass tube was sealed and placed in a temperature-controlled water bath. When the temperature was equilibriated, in the manner in which the miscibility of the oil [S1] with the fluoroalkane was visually evaluated, a miscibility limit was measured in the temperature range of from room temperature to 90 °C. A lower miscibility limit at temperatures lower than room temperature was likewise measured by cooling with a methanol cooling medium. The results are shown in Table 3 together with the results of Comparative Example 1.
The miscibility of the oil [S2] obtained in Referential Example 2 with HFC-32 (CH2F2) was evaluated in the same manner as in Example 1.

[4] = Evaluation of heat resistance (sealed tube test); conditions: 175 °C for 10 days with HFC-134a and steel, copper, aluminum pieces
Experimental: A glass tube was charged with 0.6 ml of purified oil [S1], HFC-134a and test pieces of steal copper and aluminum, and the glass tube was then sealed to enclose a refrigerant composition therein. The refrigerant composition was heated at 175 °C for 10 days. After the heating, any change of the hue of the refrigerant composition and any change of the surfaces of the metal pieces were examined.
The heat resistances of various compounds of the present invention were evaluated according to the sealed tube test in the same manner as described above. […]

[5] = Volume resistivity, JIS C2101 (insulating oil test); conditions: 20 °C; for volume resistivity: oil as obtained in the Referential Example
Experimental: Volume resistivity of the oil [S1] obtained in Referential Example 1 was measured according to the method of JIS C2101 (insulating oil test).

[6] = Insulation breakdown voltage, JIS C2101; conditions: oil purified with activated carbon
Experimental: 100 g of activated carbon (Calgon® CPG, manufactured by Calgon Far East, Japan) dried in vacuum at 150 °C for 3 hours was dispersed in 400 g of R-113 to obtain a suspension, and 200 g of the oil [S1] obtained in Example 40 was added thereto, followed by agitation at room temperature overnight. The activated carbon was removed by filtration and, then, the R-113 was dis tilled off, followed by simple distillation of the oil, thereby obtaining 140 g of a colorless, transparent oil. The oil obtained according to the present purification method was analyzed by gas chromatography. […] Further, each of the volume resistivities of the oil at 20 °C before and after purification was measured in substantially the same manner as in Example 45. […] The above results are shown in Table 13, together with the results of Comparative Examples 17 through 20.

[7] = Miscibility with mineral oil; conditions: weight ratio 50/50
[8] = Miscibility test with HFC-125
Experimental: as §1
The miscibility of the oil [S2] obtained in Referential Example 2 with HFC-125 (CF3CHF2) was evaluated in the same manner as in Example 1.

[9] = Miscibility test with HFC-227ea
Experimental: as §1
The miscibility of the oil [S2] obtained in Referential Example 2 with HFC-227ea (CF3CHFCF3) was evaluated in the same manner as in Example 1.

[10] = Miscibility with polypropylene glycol; conditions: weight ratio 50/50; polypropylene glycol number average molecular weight 1000
[11] = Miscibility with ester oil; conditions: weight ratio 50/50
[12] = Miscibility with fluoroalkanes in general
Description: The present inventors have examined the miscibilities of perfluoropolyethers having the various structures indicated below, inclusive of perfluoropolyethers (trade name: Fomblin Y-06, Y-25 and Y-45, manufactured and sold by Nippon Montedison Co., Ltd., Japan) employed in Examples of Japanese Patent Application Laid-Open Specification Nos. 60-96684 and 1-118598, with a fluoroalkane, such as HFC-134a, HFC-134 and HFC-152a. […] Accordingly, it has been confirmed that such perfluoropolyethers are not suitable as a lubricant for use in refrigeration equipment employing a fluoroalkane, such as HFC-134a, HFC-134 and HFC-152a, as a refrigerant. [drawing 1] wherein each of q1, q2, q3, q4, q5 and q6 is a positive integer.
The miscibilities of commercially available perfluoropolyether and 2,2-bis(4-ethoxyphenyl)propane with each of the above various fluoroalkane were evaluated, in substantially the same manner as in Example 1. The results are shown in Table 3 together with data of the kinetic viscosity at 40 °C.

[13] = mixing ratio [S2]/[S2]+HFC-134a 5 % by weight
[14] = mixing ratio [S2]/[S2]+HFC-134a 10 % by weight
[15] = mixing ratio [S2]/[S2]+HFC-134a 30 % by weight
[16] = mixing ratio [S2]/[S2]+HFC-134a 50 % by weight
[17] = mixing ratio [S2]/[S2]+HFC-134a 80 % by weight

Structure (SMILES) | Temperature range for being miscible with HFC-134a lower limit temperature (°C) [1] | Temperature range for being miscible with HFC-134a upper limit temperature (°C) [1] | Kinetic viscosity (cSt)40°C [2] [cSt] | lower limit temperature to be miscible with HFC-32 [3] [°C] | upper limit temperature to be miscible with HFC-32 [3] [°C] | kinetic viscosity at 100 °C [2] [cSt] | After sealed tube test IR [4] | After sealed tube test hue [4] | After sealed tube test metal surface [4] | After sealed tube test viscosity [4] | volume resistivity [5] | other results
CC(C)(c1ccc(OC(F)(F)CF)cc1)c1ccc(OC(F)(F)CF)cc1 [[S9]] | -78 or below °C | 90 or above °C | 50 |  |  |  |  |  |  |  |  | 
CC(C)(c1ccc(OC(F)(F)C(F)Cl)cc1)c1ccc(OC(F)(F)C(F)Cl)cc1 (centres unmarked) [[S1]] |  |  | 56.8 | -56 | ≥ 90 | 5.34 | not changed at all | not changed | not changed | not changed at all | 3.0 x 10^11 Ωcm | Volume resistivity (Ωcm) before purification ([5]; oil of Example 40 ([S1]) or Example 44 ([S2]) before adsorbent treatment): 1.0 x 10^11 Ωcm; volume resistivity after purification ([5]; purified with activated carbon (Calgon® CPG)): 2.2 x 10^13 Ωcm; insulation breakdown voltage [6]: ≥ 50 kV/2.5 cm; miscibility with mineral oil [7]: completely miscible
CC(C)(c1ccc(OC(F)(F)C(F)F)cc1)c1ccc(OC(F)(F)C(F)F)cc1 [[S2]] |  |  | 26.2 | ≤ -78 | 90 | 3.40 | not changed | not changed | not changed | not changed | 5.7 x 10^11 Ωcm | Temperature range to be miscible (°C) lower limit temperature [1, 13]: -78 or below °C; Temperature range to be miscible (°C) upper limit temperature [1, 13]: 90 or above °C; Temperature range to be miscible (°C) lower limit temperature [1, 14]: -78 or below °C; Temperature range to be miscible (°C) upper limit temperature [1, 14]: 90 or above °C; Temperature range to be miscible (°C) lower limit temperature [1, 15]: -78 or below °C; Temperature range to be miscible (°C) upper limit temperature [1, 15]: 90 or above °C; Temperature range to be miscible (°C) lower limit temperature [1, 16]: -78 or below °C; Temperature range to be miscible (°C) upper limit temperature [1, 16]: 90 or above °C; Temperature range to be miscible (°C) lower limit temperature [1, 17]: -78 or below °C; Temperature range to be miscible (°C) upper limit temperature [1, 17]: 90 or above °C; lower limit temperature to be miscible with HFC-125 [8]: ≤ -78 °C; upper limit temperature to be miscible with HFC-125 [8]: 90 °C; lower limit temperature to be miscible with HFC-227ea [9]: ≤ -78 °C; upper limit temperature to be miscible with HFC-227ea [9]: 90 °C; miscibility with polypropylene glycol [10]: completely miscible; miscibility with ester oil [11]: completely miscible
CCOc1ccc(C(C)(C)c2ccc(OCC)cc2)cc1 [[S14], 2,2-bis(4-ethoxyphenyl)propane] |  |  |  |  |  |  |  |  |  |  |  | miscibility with fluoroalkanes, such as HFC-134a [12]: little miscibility
Cc1cc(C(C)(C)c2ccc(OC(F)(F)C(F)F)c(C)c2)ccc1OC(F)(F)C(F)F [[S5]] | -78 or below °C | 90 or above °C | 115 |  |  |  | not changed | not changed | not changed | not changed | 2.9 x 10^12 Ωcm | 
CC(C)(c1ccc(OC(F)F)cc1)c1ccc(OC(F)F)cc1 [[S7]] | -78 or below °C | 90 or above °C | 4 |  |  |  |  |  |  |  |  | 
